This is an account of results in paper PMC4068261 (Journal of natural products, 2014).

Molecules are shown by their SMILES.

The subject of experiment [1] is HIV-1. Put plainly: microbe, parasite or virus in culture. In kind it is cell-based. The conditions noted are these: Human immunodeficiency virus 1, HOG.R5, read-out: anti-HIV activity IC50.
Experiment [2] relates to HIV-1. Particulars: previous discovery; cited from earlier work.

Usually IC50 stands for the concentration that inhibits the measured activity by half.

In the case of `COc1cc(O)cc2c1C(=O)C[C@@H](c1ccccc1)O2` [Compound 5, alpinetin], in experiment [1], the 50% inhibitory concentration (IC50) was determined as 130 µM.
Consider `C=Cc1c(C)c2cc3nc(c4c5[nH]c(cc6nc(cc1[nH]2)C(C)=C6CC)c(C)c5C(=O)[C@@H]4C(=O)OC)[C@@H](CCC(=O)O)[C@@H]3C` [pheophorbide a], for which, in experiment [2], the “anti-HIV activity (in words)” value is listed as “potent anti-HIV agent”.
